The values below come from PubChem BioAssay AID1259411 (Chemical Carcinogenesis Research Information System (CCRIS), 2018).

The test system of this series is rodent carcinogenicity bioassays, tumor incidence. In words: CCRIS carcinogenicity studies. As to conditions: Species: RAT. The gist of the method:
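NCI-built, expert-reviewed records of carcinogenicity and related test outcomes (mutagenicity, tumor promotion/inhibition) compiled from published and report sources, historical span 1985-2011, not updated.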

Each structure is given as a SMILES string. The source made the active and inactive calls. The rule behind the calls is not given here.

Consider `C=CCl`, for which the carcinogen call (Strain/Sex: SPRAGUE-DAWLEY/FEMALE, Route: INHALATION, Dose: 0, 6000, 10000 PPM IN AIR 4 HR/D 1 D/WK FOR 25 WK (STUDY DURATION: LIFETIME), Dose: 0, 6000, 10000 PPM IN AIR 4 HR/D 1 D/WK FOR 25 WK (STUDY DURATION: LIFETIME), Tumor Site: Type of Lesion: [BRAIN WAS ONLY SITE EVALUATED]) was “inactive; negative”; the carcinogen call (Strain/Sex: SPRAGUE-DAWLEY/FEMALE, Route: INHALATION, Dose: 0, 6000, 10000 PPM IN AIR 4 HR/D 5 D/WK FOR 5 WK (STUDY DURATION: LIFETIME), Dose: 0, 6000, 10000 PPM IN AIR 4 HR/D 5 D/WK FOR 5 WK (STUDY DURATION: LIFETIME), Tumor Site: Type of Lesion: [BRAIN WAS ONLY SITE EVALUATED]) is “inactive; negative”; the carcinogen call (Strain/Sex: SPRAGUE-DAWLEY/MALE,FEMALE, Route: GAVAGE, Dose: 0, 3.33, 16.65, 50.0 MG/KG IN OLIVE OIL 1/D, 4-5 D/WK FOR 52 WK (STUDY DURATION: 136 WK), Dose: 0, 3.33, 16.65, 50.0 MG/KG IN OLIVE OIL 1/D, 4-5 D/WK FOR 52 WK (STUDY DURATION: 136 WK), Tumor Site: Type of Lesion: LIVER: ANGIOSARCOMA) was “active; positive”; the carcinogen call (Strain/Sex: SPRAGUE-DAWLEY/MALE,FEMALE, Route: INHALATION, Dose: 0, 50-10000 PPM 4 HR/D, 5 D/WK FOR 52 WK (STUDY DURATION: 135 WK), Tumor Site: Type of Lesion: LIVER: ANGIOSARCOMA, NERVOUS SYSTEM: NEUROBLASTOMA, EAR (ZYMBAL GLAND): CARCINOMA, KIDNEY: NEPHROBLASTOMA, Tumor Site: Type of Lesion: LIVER: ANGIOSARCOMA, NERVOUS SYSTEM: NEUROBLASTOMA, EAR (ZYMBAL GLAND): CARCINOMA, KIDNEY: NEPHROBLASTOMA) is “active; positive”; the carcinogen call (Strain/Sex: SPRAGUE-DAWLEY/MALE, Route: GAVAGE, Dose: 0, 0.03, 0.3, 1, 3.33, 16.65, 50 MG/KG BW IN OLIVE OIL 1/D 4-5 D/WK FOR 52-59 WK (STUDY DURATION: LIFETIME), Dose: 0, 0.03, 0.3, 1, 3.33, 16.65, 50 MG/KG BW IN OLIVE OIL 1/D 4-5 D/WK FOR 52-59 WK (STUDY DURATION: LIFETIME), Tumor Site: Type of Lesion: [BRAIN WAS ONLY SITE EVALUATED]) is “inactive; negative”; the carcinogen call (Strain/Sex: SPRAGUE-DAWLEY/MALE, Route: INHALATION, Dose: 0, 600 PPM 4 HR/D, 5 D/WK FOR 1 YR (STUDY DURATION: 2.5 YR), Tumor Site: Type of Lesion: LIVER: HEPATOCELLULAR CARCINOMA, ANGIOSARCOMA) is “active; positive”. Moreover, the carcinogen call (Strain/Sex: SPRAGUE-DAWLEY/MALE, Route: INHALATION, Dose: 0, 2500 PPM 4 HR/D 5 D/WK FOR 7 WK THEN 7 HR/D 5 D/WK FOR 8 WK ADMINISTERED TO RAT EMBRYOS BEGINNING ON 12TH DAY OF GEST, Tumor Site: Type of Lesion: LIVER: HEPATOMA, ANGIOSARCOMA, BRAIN: NEUROBLASTOMA) is “active; positive”; the carcinogen call (Strain/Sex: SPRAGUE-DAWLEY/MALE, Route: INHALATION, Dose: 0, 2500 PPM 4 HR/D 5 D/WK FOR 7 WK THEN 7 HR/D 5 D/WK FOR 69 WK ADMINISTERED TO RAT EMBRYOS BEGINNING ON 12TH DAY OF GES, Tumor Site: Type of Lesion: BRAIN: NEUROBLASTOMA, LIVER, HEPATOCARCINOMA, ANGIOSARCOMA, Tumor Site: Type of Lesion: BRAIN: NEUROBLASTOMA, LIVER, HEPATOCARCINOMA, ANGIOSARCOMA) was “active; positive”; the carcinogen call (Strain/Sex: SPRAGUE-DAWLEY/MALE, Route: INHALATION, Dose: 0, 6000, 10000 PPM IN AIR 1 HR/D 4 D/WK FOR 25 WK (STUDY DURATION: LIFETIME), Dose: 0, 6000, 10000 PPM IN AIR 1 HR/D 4 D/WK FOR 25 WK (STUDY DURATION: LIFETIME), Tumor Site: Type of Lesion: [BRAIN WAS ONLY SITE EVALUATED]) was “inactive; negative”; the carcinogen call (Strain/Sex: SPRAGUE-DAWLEY/MALE, Route: INHALATION, Dose: 0, 6000, 10000 PPM IN AIR 4 HR/D 1 D/WK FOR 25 WK (STUDY DURATION: LIFETIME), Dose: 0, 6000, 10000 PPM IN AIR 4 HR/D 1 D/WK FOR 25 WK (STUDY DURATION: LIFETIME), Tumor Site: Type of Lesion: [BRAIN WAS ONLY SITE EVALUATED]) is “inactive; negative”; the carcinogen call (Strain/Sex: SPRAGUE-DAWLEY/MALE, Route: INHALATION, Dose: 0, 6000, 10000 PPM IN AIR 4 HR/D 5 D/WK FOR 5 WK (STUDY DURATION: LIFETIME), Dose: 0, 6000, 10000 PPM IN AIR 4 HR/D 5 D/WK FOR 5 WK (STUDY DURATION: LIFETIME), Tumor Site: Type of Lesion: [BRAIN WAS ONLY SITE EVALUATED]) was “inactive; negative”; the carcinogen call (Strain/Sex: SPRAGUE-DAWLEY, Route: ORAL, Tumor Site: Type of Lesion: LIVER) was “active; positive”. Further, the carcinogen call was “active; positive” (Strain/Sex: WISTAR/FEMALE, Route: ORAL, Dose: 0, 0.014, 0.13, 1.3 MG/KG/BW/D IN DIET FOR DURATION OF STUDY (STUDY DURATION: 150 WK), Dose: 0, 0.014, 0.13, 1.3 MG/KG/BW/D IN DIET FOR DURATION OF STUDY (STUDY DURATION: 150 WK), Tumor Site: Type of Lesion: LIVER: NEOPLASTIC NODULES); “active; positive” (Strain/Sex: WISTAR/MALE, Route: INHALATION, Dose: 0, 1, 50, 250, 500, 2500, 6000, 10000 PPM 4 HR/D, 5 D/WK FOR 52 WK (STUDY DURATION: 134-165 WK), Dose: 0, 1, 50, 250, 500, 2500, 6000, 10000 PPM 4 HR/D, 5 D/WK FOR 52 WK (STUDY DURATION: 134-165 WK), Tumor Site: Type of Lesion: LIVER: ANGIOSARCOMA, NERVOUS SYSTEM: NEUROBLASTOMA); “active; positive” (Strain/Sex: WISTAR/MALE, Route: ORAL, Dose: 0, 0.014, 0.13, 1.3 MG/KG/BW/D IN DIET FOR DURATION OF STUDY (STUDY DURATION: 149 WK), Dose: 0, 0.014, 0.13, 1.3 MG/KG/BW/D IN DIET FOR DURATION OF STUDY (STUDY DURATION: 149 WK), Tumor Site: Type of Lesion: LIVER: HEPATOCELLULAR CARCINOMA).
